Measurements reported in US20160075765A1, “MODIFIED COLLAGEN MOLECULES” (AGENCY FOR SCIENCE, TECHNOLOGY AND RESEARCH, priority 2013, published 2016).

Columns and labels:
[1] = CD wavelength scan, helical conformation at a set temperature; format: physicochemical; details: 200 μM peptide, pH 7.0
Procedure: (§1) CD spectra were recorded on an Aviv 410 circular dichroism spectrometer equipped with temperature controller. Peptide solutions at concentrations of 200 μM were used. All sample solutions made in 10 mM sodium phosphate-dibasic buffer (pH 7.0) were equilibrated for 24 hr at 4° C. before CD measurements. A Quartz Cell of 1 mm path length was used. For wavelength scan, temperature was increased to the desired points at a rate of 10° C./hr and the sample solutions were equilibrated for 10 min before the measurements. Spectra were recorded from 260 to 190 nm and mean residue ellipticity [θ] was calculated as follows;
(§2) θ represents the ellipticity in millidegrees, N the number of amino acid residues, c the molar concentration in mol·L^−1, and l the cell path length in cm. Thermal denaturation curves were obtained at final peptide concentrations of 0.2 mM and molar ellipticity at 225 nm was measured as a function of temperature in a range of 5 to 80° C. at a heating rate of 10° C./hr. All annealed samples were heated for 30 min at 85° C. and then cooled down to 4° C. at a rate of 1° C./min followed by equilibration for 24 hr at 4° C. before the measurements. The melting temperatures were determined from the minimum points in the first derivative of the melting curves.

[2] = Thermal unfolding (thermal denaturation) followed by circular dichroism at 225 nm; format: physicochemical; details: CD, minimum of the derivative of fraction folded plot; 0.2 mM peptide, 10 mM sodium phosphate pH 7.0; not preheated; mixtures at ratio 1:2
Procedure: as §1, §2

Substance	conformation by CD at 25° C. [1]	Tm (melting temperature of triple helix) [2]
Ac-(PXG)2-(PRG)4-(PXG)2-C(O)NH2 [Peptide 3]	retained the PPII helical structure	39.4 °C
Ac-(PXG)2-(PKG)4-(PXG)2-C(O)NH2 [Peptide 2]	random coil conformations	No triple helix
